Measured values from US10980735B2, “Externally-applied dermal preparation composition containing extract of green tea cultivated under extreme shading” (AMOREPACIFIC CORPORATION, priority 2016, dated 2021).

Assays:
[1] = biological target: T1, elastase type III (Sus scrofa, UniProt P00772); test: Inhibitory effect of elastase activity; format: biochemical; conditions: EGCG 250 μM as positive control; 25° C., 15 minutes, pH 8.0
T1 construct: purchased Sigma-Aldrich, U.S.A. E0127
Protocol: The inhibitory effect of elastase activity of the extract of green tea cultivated by extreme light-shielding on anti-aging was measured in comparison with that of EGCG. The elastase and the substrate used herein were purchased from Sigma-Aldrich, […]0127). The inhibitory function of elastase activity was tested according to the following method. In a 96-well plate, […] (200 μL) and 50 μL of a 20 μg/mL elastase type III solution were mixed with a […] Tris-HCL buffer solution (pH 8.0). EGCG 250 μM was used as a positive control, and purified water was used as a non-treated group, which was a negative control. […] After completion of the reaction, the absorbance at the wavelength of 415 nm was measured. […] The inhibitory function of elastase was calculated according to the following Mathematical Formula 2, and the results are shown in Table 10. […] A: Absorbance at the wavelength of 415 nm in the absence of the test material and in the presence of enzyme B: Absorbance at the wavelength of 415 nm in the absence of the test material and enzyme C: Absorbance at the wavelength of 415 nm in the presence of the test material and enzyme D: Absorbance at the wavelength of 415 nm in the presence of the test material and in the absence of enzyme

[2] = system: collagenase (MMP-1); test: Collagenase (MMP-1) production in human fibroblasts (ELISA); format: cell-based; conditions: 10 μg/ml, 24 hours, non-treated group = 100
Protocol: The collagenase production inhibitory effect of the present invention on wrinkle improvement was measured in comparison with retinoic acid.
Human fibroblasts were seeded at 5,000 cells/well in a 96-well microtiter plate filled with a Dulbecco's modified eagle's medium (DMEM) containing 2.5% fetal bovine serum and cultured in a 5% CO2 incubator at 37° C. until they grew by about 70 to 80%. The cells were treated with the extracts of Examples 1 and 2 and Comparative Examples 1 and 3 or retinoic acid at a concentration of 10 μg/ml for 24 hours, and the cell culture was collected.
The production yield of collagenase in the collected cell culture was measured using a collagenase measurement instrument commercially available (Catalog #. RPN 2610, manufactured by Amersham Pharma Inc., USA). […]
The absorbance of the yellow-colored 96-well plate was measured at 405 nm with a spectrophotometer, and the expression level of collagenase was calculated according to the following Mathematical Formula 1. At this time, the absorbance of the cell culture collected from the group not treated with the composition was considered as the control group. Expression level of collagenase (%)=Absorbance of substance-treated cell group/Absorbance of control group×100 [Mathematical Formula 1]

T1 sequence (P00772 27-266): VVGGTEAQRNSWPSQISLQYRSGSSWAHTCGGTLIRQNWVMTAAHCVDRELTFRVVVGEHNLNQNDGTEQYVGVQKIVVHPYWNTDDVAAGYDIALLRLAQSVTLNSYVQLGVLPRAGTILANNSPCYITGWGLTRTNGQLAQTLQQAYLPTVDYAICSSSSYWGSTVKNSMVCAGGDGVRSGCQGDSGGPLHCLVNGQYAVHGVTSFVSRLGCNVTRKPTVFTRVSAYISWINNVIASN

Row | Compound | Inhibition level of elastase activity [1] [%] | Expression level of collagenase [2] [%]
1 | O=C(O[C@@H]1Cc2c(O)cc(O)cc2O[C@@H]1c1cc(O)c(O)c(O)c1)c1cc(O)c(O)c(O)c1 [EGCG] | 65 | 
2 | CC1=C(/C=C/C(C)=C/C=C/C(C)=C/C(=O)O)C(C)(C)CCC1 [Retinoic acid, retinoic acid] |  | 75
